Assay results: patent US20230365537A1, “POLO LIKE KINASE 4 INHIBITORS” (ORIC Pharmaceuticals, Inc., priority 2021, published 2023)

What was measured:
[1] = biological target: human recombinant Aurora B (Homo sapiens (Human), UniProt Q96GD4); experiment: Aurora B Kinase Biochemical Assay (ADP-Glo); conditions: ratio of Aurora B IC50 to PLK4 IC50 (selectivity)
Procedure: Activity of human recombinant Aurora B (ThermoFisher, cat #PR9210B) was measured by quantification of adenosine diphosphate (ADP) using the ADP-Glo Kinase Assay Kit (Promega, cat #V9102). […] 5 µL of 20 nM Aurora B in assay buffer (50 mM HEPES, pH 7.5, 0.01% Brij-35, 0.01% BSA, 10 mM MgCl2, 1 mM EGTA, 1 mM DTT) was added to the plates. Test compounds and Aurora B were incubated for 15 minutes at room temperature (RT). […] Reactions were stopped and the remaining ATP depleted by adding 10uL of ADP-Glo reagent (Promega, cat#V912B) and incubating for 40 minutes at RT. The simultaneous conversion of the remaining ADP to ATP and measurement of the newly synthesized ATP was achieved by addition of 20 µL Kinase Detection reagent (Promega, cat #V914B), incubation for 30 min at RT, and luminescence detection using the EnVision plate reader (PerkinElmer). […] The IC50 values reported in Table 2 were determined using four parameter non-linear regression curve fit.

[2] = biological target: human recombinant Aurora A (Homo sapiens (Human), UniProt O14965); experiment: Aurora A Kinase Biochemical Assay (ADP-Glo); conditions: ratio of Aurora A IC50 to PLK4 IC50 (selectivity)
Procedure: Activity of human recombinant Aurora A (ThermoFisher, cat #PR5935A) was measured by quantification of adenosine diphosphate (ADP) using the ADP-Glo Kinase Assay Kit (Promega, cat #V9102). […] 5 µL of 5.0 nM Aurora A in assay buffer (50 mM HEPES, pH 7.5, 0.01% Brij-35, 0.01% BSA, 10 mM MgCl2, 1 mM EGTA, 1 mM DTT) was added to the plates. Test compounds and Aurora A were incubated for 15 minutes at room temperature (RT). […] Reactions were stopped and the remaining ATP depleted by adding 10uL of ADP-Glo reagent (Promega, cat#V912B) and incubating for 40 minutes at RT. The simultaneous conversion of the remaining ADP to ATP and measurement of the newly synthesized ATP was achieved by addition of 20 µL Kinase Detection reagent (Promega, cat #V914B), incubation for 30 min at RT, and luminescence detection using the EnVision plate reader (PerkinElmer). […] The IC50 values reported in Table 2 were determined using four parameter non-linear regression curve fit.

human recombinant PLK4 = human recombinant PLK4 (Homo sapiens (Human), UniProt O00444); experiment: PLK4 Biochemical Assay (ADP-Glo); conditions: 0.5 nM PLK4, 8.0 µM ATP, 4.7 µM MBP, 6 hours at RT
Procedure: Activity of human recombinant PLK4 (ThermoFisher, cat #PV6396) was measured by quantification of adenosine diphosphate (ADP) using the ADP-Glo Kinase Assay Kit (Promega, cat #V9102). […] 5 µL of 1.0 nM PLK4 protein in assay buffer (50 mM HEPES, pH 7.5, 0.01% Brij-35, 0.01% BSA, 10 mM MgCl2, 1 mM EGTA, 1 mM DTT) was added to the plates. Test compounds and PLK4 were incubated for 15 minutes at room temperature (RT). […] Reactions were stopped and the remaining ATP depleted by adding 10 µL of ADP-Glo reagent (Promega, cat#V912B) and incubating for 40 minutes at RT. The simultaneous conversion of the remaining ADP to ATP and measurement of the newly synthesized ATP was achieved by addition of 20 µL Kinase Detection reagent (Promega, cat #V914B), incubation for 30 min at RT, and luminescence detection using the EnVision plate reader (PerkinElmer). […] The IC50 values reported in Table 2 were determined using four parameter non-linear regression curve fit.

human recombinant Aurora A, sequence (O14965 whole entry): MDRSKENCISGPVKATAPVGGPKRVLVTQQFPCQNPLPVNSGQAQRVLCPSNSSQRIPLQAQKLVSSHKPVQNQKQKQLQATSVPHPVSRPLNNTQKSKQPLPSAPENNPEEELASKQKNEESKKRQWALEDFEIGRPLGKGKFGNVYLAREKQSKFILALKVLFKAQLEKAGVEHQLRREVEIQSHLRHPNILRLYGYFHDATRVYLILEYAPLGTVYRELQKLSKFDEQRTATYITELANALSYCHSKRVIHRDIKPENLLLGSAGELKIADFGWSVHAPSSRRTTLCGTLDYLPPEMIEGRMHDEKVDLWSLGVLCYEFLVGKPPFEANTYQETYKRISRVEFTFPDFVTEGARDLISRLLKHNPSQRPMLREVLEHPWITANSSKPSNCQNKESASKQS
human recombinant PLK4, sequence (O00444 whole entry): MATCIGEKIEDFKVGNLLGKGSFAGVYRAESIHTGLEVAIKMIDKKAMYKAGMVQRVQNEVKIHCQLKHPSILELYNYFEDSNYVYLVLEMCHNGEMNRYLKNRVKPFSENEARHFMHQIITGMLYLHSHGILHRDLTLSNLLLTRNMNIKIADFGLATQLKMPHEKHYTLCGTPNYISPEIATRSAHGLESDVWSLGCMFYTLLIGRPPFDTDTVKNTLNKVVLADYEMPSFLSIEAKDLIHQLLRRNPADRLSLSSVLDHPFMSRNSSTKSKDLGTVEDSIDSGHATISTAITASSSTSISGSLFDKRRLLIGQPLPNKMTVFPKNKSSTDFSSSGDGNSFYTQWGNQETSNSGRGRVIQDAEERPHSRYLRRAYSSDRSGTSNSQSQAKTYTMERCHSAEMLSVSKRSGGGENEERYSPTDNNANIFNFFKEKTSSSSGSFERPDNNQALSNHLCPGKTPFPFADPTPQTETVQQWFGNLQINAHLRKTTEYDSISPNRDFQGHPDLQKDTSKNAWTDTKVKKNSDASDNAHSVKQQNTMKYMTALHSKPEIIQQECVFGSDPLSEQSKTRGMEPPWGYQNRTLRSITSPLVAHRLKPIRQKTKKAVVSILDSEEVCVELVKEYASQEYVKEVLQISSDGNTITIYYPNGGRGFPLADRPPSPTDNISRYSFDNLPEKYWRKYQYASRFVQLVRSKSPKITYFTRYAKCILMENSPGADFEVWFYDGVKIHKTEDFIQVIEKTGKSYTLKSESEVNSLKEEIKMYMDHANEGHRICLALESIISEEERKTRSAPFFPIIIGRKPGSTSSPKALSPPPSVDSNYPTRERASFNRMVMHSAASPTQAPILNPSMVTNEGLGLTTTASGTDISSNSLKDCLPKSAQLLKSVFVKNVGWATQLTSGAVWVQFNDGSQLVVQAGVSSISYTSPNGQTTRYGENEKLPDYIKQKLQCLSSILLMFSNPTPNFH
human recombinant Aurora B, sequence (Q96GD4 whole entry): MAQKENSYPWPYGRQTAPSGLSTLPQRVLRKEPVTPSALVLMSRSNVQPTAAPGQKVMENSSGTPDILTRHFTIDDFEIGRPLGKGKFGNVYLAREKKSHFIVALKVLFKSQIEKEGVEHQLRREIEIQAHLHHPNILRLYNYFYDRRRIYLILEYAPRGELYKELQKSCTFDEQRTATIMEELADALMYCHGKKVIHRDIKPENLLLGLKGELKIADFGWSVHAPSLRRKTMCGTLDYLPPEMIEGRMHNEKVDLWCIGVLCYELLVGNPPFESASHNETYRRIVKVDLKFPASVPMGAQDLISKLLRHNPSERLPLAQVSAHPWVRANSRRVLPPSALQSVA

Row | SMILES | [Aurora B IC50 (nM)]/[PLK4 IC50 (nM)] [1] | [Aurora A IC50 (nM)]/[PLK4 IC50 (nM)] [2] | IC50 (human recombinant PLK4) [nM]
1 | COc1ccc2c(c1)[C@]1(C[C@H]1c1ccc3c(Nc4cccc5c4OCC5)n[nH]c3c1)C(=O)N2 [Example 16, (1R,2S)-2-{3-[(2,3-dihydro-1-benzofuran-7-yl)amino]-1H-indazol-6-yl}-5′-methoxyspiro[cyclopropane-1,3′-indol]-2′(1′H)-one] | 11.76 | 605.6855 | 2.18
2 | COc1ccc2c(c1)[C@]1(C[C@H]1c1ccc3c(Nc4ncccc4OC)n[nH]c3c1)C(=O)N2 [Example 17, (1R,2S)-5′-methoxy-2-{3-[(3-methoxypyridin-2-yl)amino]-1H-indazol-6-yl}spiro[cyclopropane-1,3′-indol]-2′(1′H)-one] | 34.9 | 1145.911 | 4.3
3 | COc1ccc2c(c1)[C@]1(C[C@H]1c1ccc3c(Nc4cn(C)nc4OC)n[nH]c3c1)C(=O)N2 [Example 25, (1R,2S)-5′-methoxy-2-{3-[(3-methoxy-1-methyl-1H-pyrazol-4-yl)amino]-1H-indazol-6-yl}spiro[cyclopropane-13′-indol]-2′(1′H)-one] | 28.1 | 249.6489 | 34.2
4 | COc1ccc2c(c1)[C@]1(C[C@H]1c1ccc3c(Nc4cnn5c4OCC5)n[nH]c3c1)C(=O)N2 [Example 30, (1R,2S)-2-{3-[(2,3-dihydropyrazolo[5,1-b][1,3]oxazol-7-yl)amino]-1H-indazol-6-yl}-5′-methoxyspiro[cyclopropane-1,3′-indol]-2′(1′H)-one] | 6.188 | 36.2 | 31.2
5 | COc1ccc2c(c1)[C@]1(C[C@H]1c1ccc3c(Nc4cccc5c4OCC5=O)n[nH]c3c1)C(=O)N2 [Example 31, (1R,2S)-5′-methoxy-2-{3-[(3-oxo-2,3-dihydro-1-benzofuran-7-yl)amino]-1H-indazol-6-yl}spiro[cyclopropane-1,3′-indol]-2′(1′H)-one] | 22.17 | 207.053 | 3.02
6 | COc1ccc2c(c1)[C@]1(C[C@H]1c1ccc3c(Nc4nccc5c4OCC5)n[nH]c3c1)C(=O)N2 [Example 32, (1R,2S)-2-{3-[(2,3-dihydrofuro[2,3-c]pyridin-7-yl)amino]-1H-indazol-6-yl}-5′-methoxyspiro[cyclopropane-1,3′-indol]-2′(1′H)-one] | 17.5546 | 911.8842 | 3.94
7 | COc1ccc2c(c1)[C@]1(C[C@H]1c1ccc3c(Nc4nccc5c4OC[C@@H]5CO)n[nH]c3c1)C(=O)N2 [Example 33, (1R,2S)-2-(3-{[(3S)-3-(hydroxymethyl)-2,3-dihydrofuro[2,3-c]pyridin-7-yl]amino}-1H-indazol-6-yl)-5′-methoxyspiro[cyclopropane-1,3′-indol]-2′(1′H)-one] | 8.474 | 355.9465 | 5.91
8 | COc1ccc2c(c1)[C@]1(C[C@H]1c1ccc3c(Nc4cc(N5CC(OC)C5)ncn4)n[nH]c3c1)C(=O)N2 [Example 35, (1R,2S)-5′-methoxy-2-(3-{[6-(3-methoxyazetidin-1-yl)pyrimidin-4-yl]amino}-1H-indazol-6-yl)spiro[cyclopropane-1,3′-indol]-2′(1′H)-one] | 2.162 | 67.3 | 7.53
9 | COc1ccc2c(c1)[C@]1(C[C@H]1c1ccc3c(Nc4ncnc(N5C6CCC5COC6)c4OC)n[nH]c3c1)C(=O)N2 [Example 37, (1R,2S)-2-(3-((6-(3-oxa-8-azabicydo[3.2.1]octan-8-yl)-5-methoxypyrimidin-4-yl)amino)-1H-indazol-6-yl)-5′-methoxyspiro[cydopropane-1,3′-indolin]-2′-one] | 49.51 | 1799.358 | 12.5

Now from value to compound:

Row | [Aurora B IC50 (nM)]/[PLK4 IC50 (nM)] [1] | [Aurora A IC50 (nM)]/[PLK4 IC50 (nM)] [2] | IC50 (human recombinant PLK4) [nM] | SMILES
10 | 5.701 | 218.2083 | 6.17 | COc1ccc2c(c1)[C@]1(C[C@H]1c1ccc3c(Nc4cc(N5CC(O)C5)ncn4)n[nH]c3c1)C(=O)N2 [Example 36, (1R,2S)-2-(3-{[6-(3-hydroxyazetidin-1-yl)pyrimidin-4-yl]amino}-1H-indazol-6-yl)-5′-methoxyspiro[cyclopropane-1,3′-indol]-2′(1′H)-one]
11 | 2.761 | 43.69 | 14.1 | COc1ccc2c(c1)[C@]1(C[C@H]1c1ccc3c(Nc4cc(OCCO)ncn4)n[nH]c3c1)C(=O)N2 [Example 38, (1R,2S)-2-(3-{[6-(2-hydroxyethoxy)pyrimidin-4-yl]amino}-1H-indazol-6-yl)-5′-methoxyspiro[cyclopropane-1,3′-indol]-2′(1′H)-one]
12 | 1.018 | 30.38 | 26.4 | COc1ccc2c(c1)[C@]1(C[C@H]1c1ccc3c(Nc4cc(N5CCS(=O)(=O)CC5)ncn4)n[nH]c3c1)C(=O)N2 [Example 39, (1R,2S)-2-(3-((6-(1,1-dioxidothiomorpholino)pyrimidin-4-yl)amino)-1H-indazol-6-yl)-5′-methoxyspiro[cyclopropane-1,3′-indolin]-2′-one]
13 | 2.783 | 67.06 | 15.2 | COc1ccc2c(c1)[C@]1(C[C@H]1c1ccc3c(Nc4cc(N5CCCOCC5)ncn4)n[nH]c3c1)C(=O)N2 [Example 40, (1R,2S)-5′-methoxy-2-(3-{[6-(1,4-oxazepan-4-yl)pyrimidin-4-yl]amino}-1H-indazol-6-yl)spiro[cyclopropane-1,3′-indol]-2′(1′H)-one]
14 | 42.3 | 1053.808 | 36.2 | COc1ccc2c(c1)[C@]1(C[C@H]1c1ccc3c(Nc4ncnc(N5CCC5)c4OC)n[nH]c3c1)C(=O)N2 [Example 42, (1R,2S)-2-(3-{[6-(azetidin-1-yl)-5-methoxypyrimidin-4-yl]amino}-1H-indazol-6-yl)-5′-methoxyspiro[cyclopropane-1,3′-indol]-2′(1′H)-one]
15 | 21.9 | 1347.136 | 14.5 | COc1ccc2c(c1)[C@]1(C[C@H]1c1ccc3c(Nc4ncnc(N5CC(O)C5)c4OC)n[nH]c3c1)C(=O)N2 [Example 43, (1R,2S)-2-(3-{[6-(3-hydroxyazetidin-1-yl)-5-methoxypyrimidin-4-yl]amino}-1H-indazol-6-yl)-5′-methoxyspiro[cyclopropane-1,3′-indol]-2′(1′H)-one]
16 | 45.11 | 1269.119 | 20.7 | COc1ccc2c(c1)[C@]1(C[C@H]1c1ccc3c(Nc4ncnc(N5CCCOCC5)c4OC)n[nH]c3c1)C(=O)N2 [Example 44, (1R,2S)-5′-methoxy-2-(3-{[5-methoxy-6-(1,4-oxazepan-4-yl)pyrimidin-4-yl]amino}-1H-indazol-6-yl)spiro[cyclopropane-1,3′-indol]-2′(1′H)-one]
17 | 4.603 | 137.8309 | 15.5 | COc1ccc2c(c1)[C@]1(C[C@H]1c1ccc3c(Nc4cc(N5CCC5)ncn4)n[nH]c3c1)C(=O)N2 [Example 45, (1R,2S)-2-(3-{[6-(azetidin-1-yl)pyrimidin-4-yl]amino}-1H-indazol-6-yl)-5′-methoxyspiro[cyclopropane-1,3′-indol]-2′(1′H)-one]
